Consider one compound from patent publication US20230357240A1, “NOVEL N-HETEROCYCLIC BET BROMODOMAIN INHIBITOR, AND PREPARATION METHOD THEREOF AND MEDICAL USE THEREOF” (Chengdu Easton Biopharmaceuticals Co., Ltd., priority 2020, published 2023).

One assay has as its system MV4-11 xenograft tumor. Nature of the assay: In vivo efficacy test, MV4-11 xenograft tumor model in mice. Particulars: NOD-SCID mice, 5 mg/kg qd gavage, 14 days. The text has this: EXAMPLE 11 In Vivo Efficacy Test of the Compound of the Present Application
Objective: To test the inhibitory effect of the test compound on the growth of xenograft tumor in nude mice with MV4-11 leukemia.
Method: NOD-SCID mice were subcutaneously inoculated with MV4-11 cells to establish an MV4-11 xenograft tumor model in mice. 16 days after inoculation (d16), average tumor volume was about 210 mm^3. According to the tumor volumes, the tumor-bearing mice were grouped in a random block method, with 6 mice in each group. The groups included a solvent control group, an ABBV-744 control group, and a test sample group, the dosage was 5 mg/kg mouse body weight, and the dose volume was 10 mL/kg mouse body weight, once a day. Each group was gavage administered for 14 consecutive days, and the solvent control group was gavage administered with a blank solvent (20% […] solution). Tumor volumes were measured twice weekly after administration of the test drug. The animals were euthanized after the test.

A further assay concerns MV4-11 cell. In words: MV4-11 cell proliferation experiment (CCK-8 cell viability). In kind it is cell-based. Particulars: Homo sapiens, MV4-11 cells, 72-hour culture. How it is done:
EXAMPLE 9 Cell Experiment (MV4-11 Cell Proliferation Experiment)
Determination of Cell Viability with CCK-8 Reagent
(1) MV4-11 cell suspension was pipetted from a culture flask into a 15 mL centrifuge tube, and the cell suspension was centrifuged at 1000 rpm for 4 minutes.
(2) A supernatant in the centrifuge tube was discarded, and an appropriate amount of fresh complete medium (IMDM+10% FBS+1% P/S) was added to resuspend the cells. 20 μL of cell suspension was collected, 20 μL of trypan blue was added, and CounterStar was used for counting.
(3) A required cell suspension volume and complete medium volume were calculated according to viable cell density and the required number of plated cells. MV4-11 cells were plated at a density of 1*10^4 cells/well in 100 μL/well.
(4) 100 μL of the above cell suspension was pipetted into a 96-well plate by using an electric pipette. 150 μL of complete medium was added to blank control wells. PBS was added to peripheral wells of the 96-well plate, to avoid liquid evaporation. The 96-well plate was cultured overnight in an incubator.
Day 2: Compound Preparation:
(1) The compound of the present application dissolved in DMSO and the positive control substance ABBV-744 were fetched, and subjected to serial dilution (dilution in column A, column B, . . . , column J sequentially from left to right in a 96-well PCR plate).
An initial concentration of the solution in column A is 10 mM;
Column B: 2 μL of the solution in column A was diluted with 8 μL of DMSO to obtain a final concentration of 2000 μM;
Column C: 2 μL of the solution in column B was diluted with 8 μL of DMSO to obtain a final concentration of 400 μM;
Column D: 2 μL of the solution in column C was diluted with 8 μL of DMSO to obtain a final concentration of 80 μM;
Column E: 2 μL of the solution in column D was diluted with 8 μL of DMSO to obtain a final concentration of 16 μM;
Column F: 2 μL of the solution in column E was diluted with 8 μL of DMSO to obtain a final concentration of 3.2 μM;
Column G: 2 μL of the solution in column F was diluted with 8 μL of DMSO to obtain a final concentration of 0.64 μM;
Column H: 2 μL of the solution in column G was diluted with 8 μL of DMSO to obtain a final concentration of 0.128 μM;
Column I: 2 μL of the solution in column H was diluted with 8 μL of DMSO to obtain a final concentration of 0.0256 μM; and
Column J: 2 μL of the solution in column I was diluted with 8 μL of DMSO to obtain a final concentration of 0.00512 μM.
The suspension was centrifuged for 1 minute at 1000 rpm by using a low-speed centrifuge.
(2) 3×Compound Preparation: (Diluted in a 96-Well Cell Culture Plate)
3 μL of each of the solutions in columns B to J was pipetted into […] of complete medium by a 10 μL manual pipette to obtain 3×compound solutions with a final concentration of 30000, 6000, 1200, 240, 48, 9.6, 1.92, 0.384 and 0.0768 nM, respectively; and 3 μL of DMSO was pipetted into […] of complete medium as a control. The resulting 96-well cell culture plate was put on an oscillator to be oscillated at 500 rpm for 30 minutes.
(1) The prepared 3×compound solutions with the above concentrations were each pipetted by a manual pipette with its volume set to 50 μL into a corresponding well of the 96-well plate after overnight culture on the first day, and the total culture volume of each well was 150 μL. The final concentrations of the compounds in the 96-well plate were 10 μM, 2 μM, 400 nM, 80 nM, 16 nM, 3.2 nM, 0.64 nM, 0.128 nM and 0.0256 nM, respectively. The resulting 96-well plate was put on an oscillator to be oscillated at 500 rpm for 10 minutes.
(2) The 96-well plate as prepared was put in a CO2 incubator for 72-hour culture.
(1) CCK-8 test solution was pipetted into the 96-well cell culture plate in an amount of 15 μL/well by a pipette with a volume set to 15 μL.
(2) The 96-well plate was put in the CO2 incubator for 4-hour culture. […]

Turning to `CCNC(=O)c1cc2c(-c3sc(C(C)(C)O)cc3N3CCc4ccccc43)cn(C)c(=O)c2[nH]1` [Compound 1, N-ethyl-4-(5-(2-hydroxypropyl-2-yl)-3-(indolin-1-yl)thiophen-2-yl)-6-methyl-7-oxo-6,7-dihydro-1H-pyrrolo[2,3-c]pyridine-2-carboxamide], in the assay with MV4-11 xenograft tumor, the “Relative tumor proliferation rate T/C” value amounted to 33.15%. The compound further returned a concentration for half-maximal inhibition (IC50) in the assay on MV4-11 cell of 1.98 nM.

One may read the IC50 as the point on the concentration scale where inhibition reaches its midpoint.
